pIC50: −log10 of the molar value. Where a name gives a salt, the structure may show the parent alone. Bounds are passed on as bounds.

The results in this text go back to patent US11465989B2, “Guanidine compounds and use thereof” (IMMUNOMET THERAPEUTICS INC., priority 2014, dated 2022).

Test [1] relates to A549 cells. Nature of the test: Inhibition of OCR (XF Analyzer). The conditions noted are these: Homo sapiens, A549, 24 h. In kind it is cell-based. In outline:
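A549 cells pretreated with compound in serum-free RPMI for 23 h, then switched to pH 7.4 XF medium with 15 mM glucose, 15 mM pyruvate, 4 mM glutamine plus compound. Oxygen consumption measured by Seahorse XF after 1 h equilibration; IC50 from OCR inhibition curves, checked against CyQuant cytotoxicity.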

The subject of test [2] is U937 cell. Nature of the test: In vitro combination study with GDC0941 on U937 cell. In kind it is cell-based. As for the experimental part: A549, H1975 (CRL5908, ATCC) or U937 cell (CRL1593.2™, ATCC) lines were cultured in RPMI 1640 media (Lifetechnologies, CA) with supplement of 10% FBS and antibiotic-antimycotic (Lifetechnologies, CA). Dasatinib (Combi-Blocks, San Diego, Calif.) is Bcr-Abl-tyrosine kinase inhibitor and Src family tyrosine kinase inhibitor approved for CML treatment. GDC094 (Selleckchem, Houston, Tex.) is a pan-PI3K inhibitor and effective in various cancer cells. H1975 or A549 cells were dissociated from culture plate using 0.5% trypsin-EDTA (Lifetechnologies, CA) and were suspended. U937 cells were spun down using centrifugation. […]
Among four concentrations of the compounds of present invention, the highest concentration was set to IC80 and the lowest concentration was approximately IC30. […] 100 μl of DMSO was added after removing MTT solution from each well, and were read by VICTOR X3 Multilabel Counter at the wavelength of 550 nm.
For the analysis of U937 cell viability, 20 μl of Celltiter96® AQueous one solution (MTS, Promega, Madison, Wis.) were added to each well, and plates were incubated at 37° C. and 5% CO2. After 2 hours later, plates read by VICTOR X3 Multilabel Counter at the wavelength of 490 nm. The combination index (CI value) was calculated using Calcusyn (Biosoft, UK).

In general, pIC50 refers to the IC50 on a negative log10 scale, so that one unit is a factor of ten. `N=C(N)NC(=N)NCCc1ccc(Cl)c(Cl)c1` [Example 1, N-1-(3,4-dichloro)phenethylbiguanide hydrochloride]: in test [1], the negative logarithm of the IC50 (pIC50) is < 5.30. Also, in test [2], the “CI value (combination index)” value is “lower than 1”.
